Like-named read-outs stand apart in the source and are kept apart here.
How the values were obtained:
MAPK14 = conditions: cited from earlier work
MAPK11 = MAPK11 (Homo sapiens, UniProt Q15759); test: Enzyme assay against MAPK11 (mobility shift assay); type: biochemical; conditions: for IC50: mobility shift assay, mean ± SD of at least two independent determinations, read-out: MAPK11 Enzyme Inhibitory Activity IC50
MAPK11, sequence (Q15759 whole entry): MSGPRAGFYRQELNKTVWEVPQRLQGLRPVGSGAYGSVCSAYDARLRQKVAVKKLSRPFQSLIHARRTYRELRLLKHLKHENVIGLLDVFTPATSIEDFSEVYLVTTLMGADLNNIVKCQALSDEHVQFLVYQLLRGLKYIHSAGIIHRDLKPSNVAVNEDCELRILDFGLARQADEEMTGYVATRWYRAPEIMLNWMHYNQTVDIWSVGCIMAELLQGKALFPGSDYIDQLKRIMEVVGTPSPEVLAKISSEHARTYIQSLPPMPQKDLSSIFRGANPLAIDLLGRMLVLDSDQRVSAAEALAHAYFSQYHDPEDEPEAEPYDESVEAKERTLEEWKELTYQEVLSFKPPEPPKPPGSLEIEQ
Protocol: The effect of the above synthesized inhibitors on MAPK11 kinase activity in vitro was assessed using mobility shift assay by ChemPartner. Following the kinase reaction, a part of the substrate was added to a phosphate group under the action of the kinase to yield a product. The substrate and the product have a difference of 3 charges, thereby allowing them to be separated and detected by capillary electrophoresis. […] Finally, the data was fitted to the XLFit Excel plug-in version 5.4.0.8 to calculate the IC50 value.

IC50 (MAPK11) [nM] | melting point [°C] | SMILES | further results
14.5 ± 0.3 | 135.1 to 135.8 | Cc1cc(OC[C@H](O)CO)cc2c1CCc1cc(Nc3ccc(F)cc3F)ccc1C2=O [Compound 12b] | –
32 ± 0.6 | – | O=C1c2ccc(Nc3ccc(F)cc3F)cc2CCc2ccc(OC[C@@H](O)CO)cc21 [Compound 12c] | –
25.9 ± 0.7 | – | O=C1c2ccc(Nc3ccc(F)cc3F)cc2CCc2ccc(OCCCO)cc21 [Compound 12d] | –
16.4 ± 0.6 | 127.2 to 127.7 | Cc1cc(OCCCO)cc2c1CCc1cc(Nc3ccc(F)cc3F)ccc1C2=O [Compound 12e] | –
61 ± 2.1 | 124.6 to 125 | COC(=O)CCCOc1ccc2c(c1)C(=O)c1ccc(Nc3ccc(F)cc3F)cc1CC2 [Compound 12f] | decrease in potency against MAPK11 relative to 13a (MAPK11; ester 12f vs carboxylic acid 13a): about 10 fold
6.4 ± 0.6 | – | O=C(O)CCCOc1ccc2c(c1)C(=O)c1ccc(Nc3ccc(F)cc3F)cc1CC2 [Compound 13a] | fold more potent than 12a (skepinone-L) against MAPK11 (MAPK11; ratio of IC50 values vs 12a): 3 fold
4.2 ± 0.1 | 120.4 to 120.6 | Cc1cc(OCCCC(=O)O)cc2c1CCc1cc(Nc3ccc(F)cc3F)ccc1C2=O [Compound 13b, 4-((8-((2,4-difluorophenyl)amino)-1-methyl-5-oxo-10,11-dihydro-5H-dibenzo [a,d][7]annulen-3-yl)oxy)butanoic acid] | –
14.3 ± 0.6 | 145.3 to 145.9 | O=C1c2ccc(Nc3ccc(F)cc3F)cc2CCc2ccc(OC3CC(C(=O)O)C3)cc21 (stereo not drawn) [Compound 13c] | –
8.4 ± 0.1 | – | NC(=O)CCCOc1ccc2c(c1)C(=O)c1ccc(Nc3ccc(F)cc3F)cc1CC2 [Compound 14a] | –
> 10000 | 135.9 to 136.6 | O=S(=O)(c1ccc(Nc2ccc(F)cc2F)cc1)c1cccc(OC[C@H](O)CO)c1 [Compound 23b] | –
> 10000 | 136.3 to 136.7 | O=S(=O)(c1ccc(Nc2ccc(F)cc2F)cc1)c1cccc(OC[C@@H](O)CO)c1 [Compound 23c] | –
– | 126.8 to 127.4 | COC(=O)CCCOc1cccc(S(=O)(=O)c2ccc(Nc3ccc(F)cc3F)cc2)c1 [Compound 23d] | –
2550 ± 682 | – | O=C(O)CCCOc1cccc([S+]([O-])c2ccc(Nc3ccc(F)cc3F)cc2)c1 (stereo not drawn) [Compound 25] | decrease in potency against MAPK11 compared to dibenzocycloheptanone compounds (MAPK11): more than a hundred-fold decrease
> 10000 | 132.6 to 133.1 | O=C(O)CCCOc1cccc(S(=O)(=O)c2ccc(Nc3ccc(F)cc3F)cc2)c1 [Compound 26] | –
– | – | CC(C)(C)Cn1c(N)nc2ccc(-c3[nH]c(C(C)(C)C)nc3-c3ccc(F)cc3)nc21 [LY2228820] | IC50 (MAPK14; Figure 1): 5.3 nM

SMILES | IC50 (MAPK11) [nM] | melting point [°C] | further results
O=C1c2ccc(Nc3ccc(F)cc3F)cc2CCc2ccc(OC[C@H](O)CO)cc21 [Compound 12a, reference compound] | 19.2 ± 0.9 | – | IC50 (MAPK14): 5 nM
